Experimental findings from PubChem BioAssay (NCI) are described below.

Common to all, as to experiment: NCI tumour cell line growth inhibition, 48 h
Test [1] relates to RPMI-8226 leukemia.
In test [2] the test system is MDA-MB-231 breast.
Test [3] concerns SN12C renal.
The test system of test [4] is SK-OV-3 ovarian.
The test system of test [5] is OVCAR-4 ovarian.
Test [6] relates to UO-31 renal.
Test [7] relates to SNB-19 CNS.
The test system of test [8] is EKVX NSCLC.

Structures are written as SMILES. “And” between values parts separate entries of the source, which are not always exact repeats. Identical values can stand only once.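 The compound was tested at five concentrations on cells cultured in 96-well plates, with a 48-hour exposure period. Abbreviation: GI50, concentration required for 50% inhibition of growth. TGI is the concentration that stops growth completely.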

Consider `C=C1C(=O)O[C@H]2[C@H]1CC/C(COC(=O)/C=C/c1cccnc1)=C\CC[C@@]1(C)O[C@@H]21`, for which the GI50 in test [1] is 1.9 µM; in test [2] it was 2 µM; in test [3], 2.38 µM; in test [4], 16.4 µM; in test [5], 3.96 µM; in test [6], 1.11 µM. The GI50 was 9.05 µM in test [7] and 3.28 µM in test [8]. The TGI in test [1] was 6.15 µM; in test [2], 5.04 µM; in test [3] it was 7.92 µM; in test [4] it was 53 µM; in test [5], 16.9 µM; in test [6] it was 2.51 µM. The TGI in test [7] amounted to 28.4 µM; in test [8], 14.3 µM.

Regarding `O=C(O)CSCC(=O)c1ccccc1`, the TGI in test [1], in test [2], in test [3], in test [4], in test [5] and in test [6] was above 100 µM in each case. The TGI in test [7] and in test [8] was above 100 µM throughout.

As for `CC(C)(C)[Si](C)(C)OC1[C@@H](O[Si](C)(C)C(C)(C)C)[C@@H](CNC(=O)NC(=O)NC(=O)CI)O[C@H]1n1cnc2c(NC(=O)Nc3ccccc3)ncnc21` (stereo partly specified), the GI50 in test [1] was 0.285 µM; in test [2], 0.251 µM; in test [3] it was 6.49 µM; in test [4] it was 10.4 µM; in test [5], 0.665 µM; in test [6], 0.0888 µM. Besides, the GI50 in test [7] is 12.5 µM; in test [8] it was 0.236 µM. The TGI in test [1] is 1.76 µM; in test [2], 0.995 µM; in test [3] it was 15.6 µM; in test [4] it was 27.9 µM; in test [5], 2.36 µM; in test [6], 0.178 µM. Further, the values for the TGI in test [7] and in test [8] were 38.2 µM and 1.14 µM, respectively.

Consider `COc1ccc(/C=C(\C#N)n2nnc3cc(Cl)ccc32)cc1`, for which the GI50 was 0.694 µM in test [1]; 1.09 µM in test [2]; 0.662 µM in test [3]; 7.09 µM in test [4]; 2.51 µM in test [5]; 2.2 µM in test [6]. Further, the GI50 in test [7] is 1.12 µM; in test [8] it was 1.47 µM. Moreover, the TGI was above 100 µM in test [1]; 10.2 µM in test [2]; above 100 µM in test [3]; above 82.3 µM in test [4]; above 100 µM in test [5]; 32.4 µM in test [6]. The TGI in test [7] was above 41.4 µM; in test [8], above 78 µM.

Take `Cc1c2ncccc2c(C)c2c1[nH]c1ccc(O)cc12`: the GI50 in test [1] was 3.07 µM; in test [2], 7.26 µM; in test [3] it was 5.99 µM and 5.39 µM; in test [6] it was 8.04 µM; in test [7] it was 19.7 µM; in test [8], 1.01 µM. The TGI in test [1] is 8.78 µM and 15.4 µM; in test [2], 19.2 µM and 54.4 µM; in test [3] it was 14.2 µM and 42.5 µM; in test [4], 11.4 µM; in test [5], 16 µM; in test [6] it was 16.7 µM and 28.4 µM. The TGI in test [7] was 20.2 µM and 84.3 µM; in test [8], 17.3 µM and 63 µM.

In the case of `COc1c(O)cc2oc3cc(O)c(CC=C(C)C)c(O)c3c(=O)c2c1C/C=C(\C)CCC=C(C)C`, the GI50 in test [1] is 10.6 µM; in test [2], 5.61 µM; in test [3], 5.68 µM; in test [4], 5.86 µM; in test [5], 5.41 µM; in test [6] it was 4.62 µM. Besides, the figures for the GI50 in test [7] and in test [8] were 6.51 µM and 4.89 µM, respectively. In addition, the TGI in test [1] stood at 31.3 µM; in test [2], 11.2 µM; in test [3] it was 10.9 µM; in test [4], 10.4 µM; in test [5], 9.84 µM; in test [6], 8.97 µM. In addition, the values for the TGI in test [7] and in test [8] were 12 µM and 9.75 µM, respectively.

As for `COc1ccc2c(CN3CCC(CO)CC3)cc3cc4c(cc3c2c1)OCO4`, the GI50 is 0.256 µM in test [1]; 1.35 µM in test [2]; 0.247 µM in test [3]; 0.326 µM in test [4]; 0.438 µM in test [5]; 0.252 µM in test [6]. Further, the GI50 in test [7] is 0.392 µM; in test [8], 0.415 µM. Also, the TGI was 0.919 µM in test [1]; 12.3 µM in test [2]; 4.37 µM in test [3]; 3.83 µM in test [4]; 11.4 µM in test [5]; 19 µM in test [6]. In addition, the results for the TGI in test [7] and in test [8] were 12.1 µM and 6.29 µM, respectively.

For the compound `C=C1C(=O)OC2C1C(OC(=O)/C(C)=C/C)CC(O)(CCl)C1C(OC(C)=O)C=C(C)C21O` (stereo unspecified), the TGI in test [1] was 31.3 µM; in test [2] it was 38.1 µM; in test [3], 40.4 µM; in test [4], above 100 µM; in test [5] it was 33.5 µM; in test [6], 35 µM. Moreover, the values for the TGI in test [7] and in test [8] were above 58.9 µM and 24.7 µM, respectively.

Take `COc1cc2c3c(n(CCCO)c(=O)c2cc1OC)-c1cc2c(cc1C3=O)OCO2`: the GI50 in test [1] is 11.6 µM; in test [2], 23.4 µM; in test [3], 3.53 µM; in test [4] it was 55.3 µM; in test [5], above 87.3 µM; in test [6], above 21.2 µM. Moreover, the results for the GI50 in test [7] and in test [8] were 14.5 µM and 54.7 µM, respectively. Moreover, the TGI in test [1] is above 78 µM; in test [2], above 76.6 µM; in test [3] it was above 54.3 µM; in test [4], above 100 µM; in test [5] it was above 100 µM; in test [6] it was above 100 µM. The TGI in test [7] and in test [8] was above 100 µM throughout.

As to `C[C@@H](Oc1cc(-c2cnn(C3CCNCC3)c2)cnc1N)c1c(Cl)ccc(F)c1Cl`, the GI50 in test [1] was 1.91 µM; in test [2] it was 1.17 µM; in test [3] it was 1.8 µM; in test [4] it was 5.85 µM; in test [6] it was 1.08 µM; in test [7] it was 2.24 µM. The GI50 in test [8] is 8.07 µM. The TGI in test [1] was 8.64 µM; in test [2] it was 6.5 µM; in test [3], above 10 µM; in test [4], above 10 µM; in test [5], above 10 µM; in test [6] it was 4.74 µM. Also, the TGI in test [7] and in test [8] was above 10 µM each time.
